Test results: ChEMBL document CHEMBL1149439, “A concise asymmetric route for the synthesis of a novel class of glucocorticoid mimetics containing a trifluoromethyl-substituted alcohol” (Bioorg Med Chem Lett, 2006)

Target: T1, Glucocorticoid receptor (Homo sapiens, UniProt P04150)
T1 sequence (P04150 whole entry): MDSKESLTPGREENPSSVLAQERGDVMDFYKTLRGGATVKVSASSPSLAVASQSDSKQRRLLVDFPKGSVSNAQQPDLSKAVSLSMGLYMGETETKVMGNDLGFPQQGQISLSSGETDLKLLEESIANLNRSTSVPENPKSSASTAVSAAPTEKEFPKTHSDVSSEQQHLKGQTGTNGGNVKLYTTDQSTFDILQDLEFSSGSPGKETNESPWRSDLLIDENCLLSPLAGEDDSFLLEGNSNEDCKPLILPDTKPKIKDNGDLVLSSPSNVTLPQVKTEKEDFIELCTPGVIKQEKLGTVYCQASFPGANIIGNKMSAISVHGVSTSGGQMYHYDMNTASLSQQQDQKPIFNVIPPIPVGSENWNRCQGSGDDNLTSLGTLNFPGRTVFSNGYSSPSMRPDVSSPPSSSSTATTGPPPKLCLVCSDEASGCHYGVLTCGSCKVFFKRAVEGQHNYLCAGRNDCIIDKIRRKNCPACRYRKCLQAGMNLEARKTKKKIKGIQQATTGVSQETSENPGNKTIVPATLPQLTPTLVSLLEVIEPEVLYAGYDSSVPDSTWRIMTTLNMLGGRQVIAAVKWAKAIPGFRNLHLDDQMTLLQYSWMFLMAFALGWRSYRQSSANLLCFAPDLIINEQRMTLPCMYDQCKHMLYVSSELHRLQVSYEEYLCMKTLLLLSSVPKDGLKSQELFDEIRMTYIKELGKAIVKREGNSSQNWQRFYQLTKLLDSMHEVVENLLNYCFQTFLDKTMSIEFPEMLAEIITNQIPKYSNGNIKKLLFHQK
Assay: Binding affinity to glucocorticoid receptor by Fluorescence polarization

SMILES | IC50
COc1ccc(F)cc1C(C)(C)C[C@](O)(Cc1ccc(Cl)cc1)C(F)(F)F | 2000 nM
COc1ccc(F)cc1C(C)(C)C[C@@](O)(Cc1ccc(Cl)cc1)C(F)(F)F | 99 nM
